Tests used:
[1] = target: T1, human k-opioid receptor (kOR) (Homo sapiens, UniProt P41145); assay: Human k-opioid (KOP) receptor (agonist radioligand [3H]U-69593) binding assay, transfected RBL cell membranes; settings: for IC50: first value of IC50/Ki cell; for inhibition at 1 µM: read-out: KOR % Inh. @ 1 uM
T1 construct: expressed in transfected cells; host or cells: RBL cells (membrane homogenates)
How it was run: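 Membranes from transfected RBL cells (~80 μg protein) incubated 60 min at 22° C with 0.5 nM [3H]U-69593 in 50 mM Tris-HCl pH 7.4, 10 mM MgCl2, 1 mM EDTA. Nonspecific binding defined with 10 μM naloxone; filtration and scintillation counting. Values are percent inhibition of specific radioligand binding.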

[2] = target: T1, human k-opioid receptor (kOR); assay: as above; settings: second value of IC50/Ki cell
[3] = target: T2, human orexin-2 receptor (OX2R) (Homo sapiens, UniProt O43614); assay: In vitro orexin antagonism assay: intracellular calcium measurement (FLIPR), orexin-A 3 nM as agonist; assay type: cell-based; settings: for inhibition at 1 µM: read-out: OX2R, % Inh. @ 1 uM; for Kb: second value of IC50/Kb cell; for IC50: first value of IC50/Kb cell
T2 construct: expressed in transfected cells; host or cells: CHO cells (G418 selection)
T2 sequence (O43614 1-444): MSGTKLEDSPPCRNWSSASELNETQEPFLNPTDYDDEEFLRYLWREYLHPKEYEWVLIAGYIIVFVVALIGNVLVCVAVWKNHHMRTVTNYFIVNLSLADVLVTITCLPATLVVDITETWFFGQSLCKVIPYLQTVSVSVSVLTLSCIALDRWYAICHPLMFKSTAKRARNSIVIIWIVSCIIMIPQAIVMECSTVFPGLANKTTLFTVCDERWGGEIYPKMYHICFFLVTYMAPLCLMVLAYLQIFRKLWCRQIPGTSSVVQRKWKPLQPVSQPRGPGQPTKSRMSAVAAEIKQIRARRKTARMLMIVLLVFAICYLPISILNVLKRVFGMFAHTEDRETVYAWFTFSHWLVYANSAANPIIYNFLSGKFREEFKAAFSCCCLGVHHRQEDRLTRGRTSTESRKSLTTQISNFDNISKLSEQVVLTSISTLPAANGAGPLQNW
How it was run: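 Fluorescence peak on 3 nM orexin-A challenge, read by FLIPR and compared with vehicle, yields IC50 (geometric mean when repeated; may be normalized to an on-plate reference). Antagonists were added 120 min beforehand to fluo-4-loaded recombinant CHO cells expressing human OX1R or OX2R.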

[4] = target: T3, Orexin type 1 (OX1R) receptor (Homo sapiens, UniProt O43613); assay: as above; assay type: cell-based; settings: for inhibition at 1 µM: read-out: OX1R, % Inh. @ 1 uM; for IC50: first value of IC50/Kb cell; for Kb: second value of IC50/Kb cell
T3 construct: expressed in transfected cells; host or cells: CHO cells (G418 selection)
T3 sequence (O43613 1-425): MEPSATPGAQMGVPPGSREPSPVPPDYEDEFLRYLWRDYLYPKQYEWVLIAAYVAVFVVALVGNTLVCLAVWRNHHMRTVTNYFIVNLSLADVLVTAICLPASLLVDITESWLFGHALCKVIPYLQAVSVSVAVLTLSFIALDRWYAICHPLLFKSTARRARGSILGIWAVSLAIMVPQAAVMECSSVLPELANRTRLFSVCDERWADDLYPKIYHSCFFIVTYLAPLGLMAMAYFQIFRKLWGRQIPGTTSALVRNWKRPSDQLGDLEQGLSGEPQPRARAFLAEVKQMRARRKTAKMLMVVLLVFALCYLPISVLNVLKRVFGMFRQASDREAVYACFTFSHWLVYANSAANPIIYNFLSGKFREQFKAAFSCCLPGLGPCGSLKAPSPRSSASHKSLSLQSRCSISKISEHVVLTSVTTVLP
How it was run: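 CHO cells expressing the human orexin receptor were loaded with 3 μM fluo-4 AM plus 5 mM probenecid, then exposed to antagonist for 120 min before 3 nM orexin-A (final) was added on a FLIPR.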

T1 sequence (P41145 whole entry): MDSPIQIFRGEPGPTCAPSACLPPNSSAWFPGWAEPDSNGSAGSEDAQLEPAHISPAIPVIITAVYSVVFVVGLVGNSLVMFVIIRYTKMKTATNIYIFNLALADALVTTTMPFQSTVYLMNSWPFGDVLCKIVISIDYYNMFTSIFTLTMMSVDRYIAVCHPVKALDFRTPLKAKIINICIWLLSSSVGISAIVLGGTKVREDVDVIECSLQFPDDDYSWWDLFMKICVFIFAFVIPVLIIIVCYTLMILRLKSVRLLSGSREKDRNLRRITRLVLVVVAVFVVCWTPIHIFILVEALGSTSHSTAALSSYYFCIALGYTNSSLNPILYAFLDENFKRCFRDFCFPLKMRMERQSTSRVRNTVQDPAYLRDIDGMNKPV

| SMILES | IC50 [1] [nM] | inhibition at 1 µM [1] [%] | Ki [2] [nM] | inhibition at 1 µM [3] [%] | inhibition at 1 µM [4] [%] | IC50 [4] [nM] | Kb [4] [nM] | Kb [3] [nM] | IC50 [3] [nM] | OX2R, % Inh. @ 1 uM ([3]; @ 1 uM) [%] | KOR % Inh. @ 1 uM ([1]; @ 1 uM) [%] | OX1R, % Inh. @ 1 uM ([4]; @ 1 uM) [%] |
| --- | --- | --- | --- | --- | --- | --- | --- | --- | --- | --- | --- | --- |
| CCc1cnc(NC[C@@H]2[C@H](C)CCCN2C(=O)c2c(-c3ccccc3)nn3ccccc23)nc1 [Example 4] | 1560 | 52 | 854 |  |  |  |  |  |  |  |  |  |
| C[C@@H]1CCCN(C(=O)c2c(-c3ccccc3)nc3ccccn23)[C@@H]1CNc1ccc(C(F)(F)F)cn1 [Example 8] | 1980 | 38 | 1080 | 21.4 | 100 |  |  |  |  |  |  |  |
| O=C(c1c(-c2ccccc2)nn2ccccc12)N1CCC[C@H]1CNc1ccc(C(F)(F)F)cn1 [Example 10] | 6130 | 26 | 3340 |  |  | 4 | 1 |  |  |  |  |  |
| O=C(c1c(-c2ccccc2)nn2ccccc12)N1CCCC[C@H]1COc1ccc(C(F)(F)F)cn1 [Example 24] | 1100 | 52 | 630 | 60.1 | 98 | 5 | 1 |  |  |  |  |  |
| O=C(c1c(-c2ccc(F)cc2)nn2ccccc12)N1CCC[C@H]1Cn1ccc(-c2ccccc2)n1 [Example 44] | 690 | 55 | 370 | 72.3 | 98.8 | 5 | 1 | 31 | 220 |  |  |  |
| O=C(c1c(-c2ccccc2)nc2ccc(F)cn12)N1CCC[C@H]1Cn1ccc(-c2ccc(F)cc2)n1 [Example 49] | 47 | 92 | 25 | 79.3 | 102 | 9 | 2 | 7 | 52 |  |  |  |
| O=C(c1c(-c2ccccc2)nc2cc(C(F)(F)F)ccn12)N1CCC[C@H]1Cn1ccc(-c2ccc(F)cc2)n1 [Example 53] | 56 | 93 | 31 | 95.5 | 97.6 | 21 | 4 | 5 | 33 |  |  |  |
| O=C(c1c(-c2ccccc2F)nn2ccccc12)N1CCC[C@H]1Cn1cc(-c2ccccc2)cn1 [Example 69] | 190 | 76 | 100 | 86 | 100 | 9 | 2 | 4 | 23 |  |  |  |
| O=C(c1nn2ccccc2c1-c1ccccn1)N1CCC[C@H]1Cn1ccc(-c2ccccn2)n1 [Example 174] |  | 0 |  | 56 | 100 | 5 | 0.9 |  |  |  |  |  |
| [2H]C1([2H])CC[C@@]([2H])(Cn2ccc(-c3ccc(F)cc3)n2)N1C(=O)c1c(-c2ncccn2)nn2ccccc12 [Example 178] |  | 53 |  | 95 | 92 | 4 | 0.8 | 3 | 15 |  |  |  |
| O=C(c1nc2ccccn2c1-c1ccccn1)N1CCC[C@H]1Cn1cc(-c2ccccn2)cn1 [Example 181] |  | 0 |  | 39 | 91 | 40 | 9 |  |  |  |  |  |
| O=C(c1nn2cccnc2c1-c1ccccn1)N1C(Cn2ccc(-c3ccc(F)cn3)n2)C[C@@H]2C[C@@H]21 (some centres unmarked) [Example 187] |  | 0 |  | 34 | 100 | 14 | 3 |  |  |  |  |  |
| O=C(c1nn2c(c1-c1ccccn1)OCCC2)N1CCC[C@H]1Cn1cc(-c2ccccn2)cn1 [Example 197] |  | 2 |  | 39 | 97 | 31 | 7 |  |  |  |  |  |
| O=C(c1nn2c(c1-c1ccccn1)COCC2)N1CCC[C@H]1Cn1cc(-c2ccc(F)cn2)cn1 [Example 198] |  |  |  |  |  | 140 | 29 |  |  | 50 | 8 | 84 |

The next lines start with results.

| IC50 [1] [nM] | inhibition at 1 µM [1] [%] | Ki [2] [nM] | inhibition at 1 µM [3] [%] | inhibition at 1 µM [4] [%] | IC50 [4] [nM] | Kb [4] [nM] | Kb [3] [nM] | IC50 [3] [nM] | SMILES | OX2R, % Inh. @ 1 uM ([3]; @ 1 uM) [%] | KOR % Inh. @ 1 uM ([1]; @ 1 uM) [%] | OX1R, % Inh. @ 1 uM ([4]; @ 1 uM) [%] |
| --- | --- | --- | --- | --- | --- | --- | --- | --- | --- | --- | --- | --- |
| 1470 | 35 | 799 |  |  |  |  |  |  | C[C@@H]1CCCN(C(=O)c2c(-c3ccccc3)nn3c2COCC3)[C@@H]1CNc1ccc(C(F)(F)F)cn1 [Example 7] |  |  |  |
| 1010 | 56 | 549 | 98.5 |  |  |  | 10 |  | O=C(c1c(-c2ccccc2)nn2ccccc12)N1CCC[C@H]1Cn1ccc(-c2ccccc2)n1 [Example 13] |  |  |  |
| 3500 | 33 | 1910 |  |  |  |  |  |  | O=C(c1c(-c2ccccc2)nn2ccccc12)N1CCC[C@H]1COc1ccc(C(F)(F)F)cn1 [Example 20] |  |  |  |
| 730 | 57 | 400 | 1.8 | 79.8 | 53 | 11 |  |  | C[C@@H]1CCCN(C(=O)c2c(-c3ccccc3)nc3ncccn23)[C@@H]1CNc1ccc(C(F)(F)F)cn1 [Example 34] |  |  |  |
| 740 | 59 | 400 | 7.1 | 98.4 | 29 | 6 |  |  | C[C@@H]1CCCN(C(=O)c2c(-c3ccc(F)cc3)nn3ccccc23)[C@@H]1CNc1ccc(C(F)(F)F)cn1 [Example 40] |  |  |  |
| 590 | 59 | 320 | 89 | 99 |  |  | 3 | 18 | O=C(c1c(-c2ccccc2)nc2cc(F)ccn12)N1CCC[C@H]1Cn1ccc(-c2ccc(F)cc2)n1 [Example 50] |  |  |  |
|  | 3 |  | 82 | 100 | 8 | 2 | 45 | 260 | O=C(c1nn2ccccc2c1-c1ccccn1)N1CCC[C@H]1Cn1cc(-c2ccccn2)cn1 [Example 173] |  |  |  |
|  | 0 |  | 67 | 94 | 38 | 9 |  |  | O=C(c1nn2ccccc2c1-c1ccccn1)N1CCC[C@H]1Cn1cc(-c2ccc(F)cn2)cn1 [Example 183] |  |  |  |
|  | 3 |  | 65 | 86 | 21 | 4 |  |  | O=C(c1nn2cccnc2c1-c1ccccn1)N1CCC[C@H]1Cn1cc(-c2ccccn2)cn1 [Example 186] |  |  |  |
|  | 0 |  | 82 | 89 |  |  | 31 | 180 | O=C(c1nn2cccnc2c1-c1ccccn1)N1CCC[C@H]1Cn1cc(-c2ccc(F)cn2)cn1 [Example 194] |  |  |  |
|  | 3 |  | 14 | 87 | 64 | 14 |  |  | O=C(c1nn2c(c1-c1ccccn1)OCCC2)N1[C@H](Cn2ccc(-c3ccc(F)cn3)n2)C[C@@H]2C[C@@H]21 [Example 202] |  |  |  |
|  | 0 |  | 52 | 100 | 39 | 8 |  |  | O=C(c1nc2ccccn2c1-c1ccccn1)N1CCC[C@H]1Cn1cc(-c2ccc(F)cn2)cn1 [Example 208] |  |  |  |

Source: patent publication US20260070922A1, “PYRAZOLE AND IMIDAZOLE DERIVATIVES AS DUAL OREXIN AND KAPPA-OPIOID RECEPTORS MODULATORS COMPOSITION, METHODS FOR TREATING NEUROLOGICAL AND PSYCHIATRIC DISORDERS” (HAGER BIOSCIENCES, LLC, priority 2022, published 2026)
